Experimental findings from the OPERA property sets (Mansouri et al. 2018) are described below.

Values after ≈ are worked out from the molar mass of the structure shown.

With `Cc1ccc(S(=O)(=O)NC(CCC(=O)NC2CCCCC2)C(=O)O)cc1` (stereo not drawn), the logP came out at 0.1.

The compound `Cc1cc(C)cc(NCc2cnc3nc(N)nc(N)c3c2C)c1` registered a logP of 2.11.

The compound `CCc1c(O)c(=O)ccn1C` showed a logP of -0.2.

Regarding `CC(C)c1cccc(-c2ccccc2)c1`, the logP was found to be 5.33.

As to `Cc1ccccc1OCCN(C)C`, the logP was found to be 2.23.

Consider `Brc1cccc(-c2ccccc2)c1`, for which the logP is 4.85.

Regarding `COc1ccc(C(N)=S)cc1`, the logP was found to be 1.63.

`Oc1cccc2ncccc12` gave a logP of 1.85.

On to `CC(C)C(C#N)c1ccc(Cl)cc1` (stereo not drawn), for which the log partition coefficient (logP) amounted to 3.41.

Consider `NC(=O)c1ccccc1NCCO`, for which the logP is -0.05.

The compound `c1ccc2c(c1)-c1cccc3c1c-2cc1ccccc13` gave a logP of 5.78.

In turn, `CN(C)CCCN1c2ccccc2Sc2ccccc21.Cl` showed a logP of 2.94.

In the case of `O=C(Nc1ccc(O)cc1)C(Cl)Cl`, the logP was 1.6.

Take `CC(=O)OCCC(C)C`: the logP worked out at 2.25.

Consider `CCCCCCCC(=O)[O-].[Na+]`, for which the logP was -1.38.

Compound `O=C(O)Cc1ccccc1I` returned a logP of 2.33.

As to `CC(C)c1ccccc1-c1ccccc1`, the log partition coefficient (logP) was found to be 5.2.

`O=C(O)c1nc(Cl)ccc1Cl` had a logP of 1.06.

Compound `Oc1cccc(-c2ccccc2O)c1` came in with a logP of 4.06.

Regarding `CCCCN(CC)N=O`, the logP is 1.63.

`Cc1cc(OCCN(C)C)c(C(C)C)cc1OC1CCCCC1=O` (stereo not drawn) yielded a log partition coefficient (logP) of 3.63.

`CN(C)CCCN1c2ccccc2S(=O)c2ccc(Cl)cc21` (stereo not drawn) came in with a logP of 2.32.

Turning to `Nc1nc(NC(=O)C(F)(F)C(F)(F)C(F)(F)F)n[nH]1`, the logP was found to be 1.54.

`CC(=O)OCN1C(=O)c2ccccc2C1=O`: the logP was 1.15.

As to `COc1nc(NC(C)C)nc(NC(C)C)n1`, the logP was 2.99.

Turning to `COC(=O)c1ccc(Cl)cc1`, the logP was 2.87.

Turning to `C[Si](C)(C)O[Si](C)(C)O[Si](C)(C)C`, the logP came to 6.6.

Turning to `Nc1nc(=O)n([C@H]2CC[C@@H](CO)O2)cc1F`, the logP is -1.09.

As to `O=[N+]([O-])c1cc(C(F)F)c(Nc2ncc(C(F)(F)F)cc2Cl)c([N+](=O)[O-])c1`, the logP turned out to be 3.52.

`Cc1c(Cl)ccc(Cc2ccc(Cl)cc2Cl)c1Cl` returned a logP of 7.2.

In turn, `C=CCCCCCCCC` yielded a logP of 5.7.

In turn, `CCCOC(=O)c1cc(=O)[nH]c(=O)[nH]1` displayed a logP of 1.1.

Compound `CCCCSP(=O)(SCCCC)SCCCC` showed a logP of 5.7.

Regarding `CC(=O)Oc1cc(C(C)C)c(OCCN(C)C)cc1C`, the logP stood at 3.17.

On to `NS(=O)(=O)c1nc2ccc(OCCO)cc2s1`, for which the lipophilicity (logP) came to 0.59.

The compound `COP(N)(=S)Oc1ccccc1C(=O)OC(C)C` (stereo not drawn) had a logP of 2.7.

`CCOC1OC2OC3(C)CCC4C(COC5OC(C(=O)O)C(O)C(O)C5O)CCC(C1C)C24OO3` (stereo not drawn): the logP was 1.05.

With `CC(=O)/C=C/C1C(C)=CCCC1(C)C` (stereo not drawn), the solubility came to 551 µM (≈ 106 µg/mL).

In the case of `CCCCC(=O)CCCC`, the logP was determined as 2.88.

In turn, `O=C(Nc1ccc(Cl)cc1)c1cc([N+](=O)[O-])ccc1O` gave a logP of 2.54.

Compound `CCCCCCCCC(=O)OC` had a lipophilicity (logP) of 4.32.

`CCOC(=O)n1c(-c2cscn2)nc2ccccc21` returned a logP of 2.51.

For `O=c1[nH]cnc2c1ncn2C1CC(O)C(CO)O1` (stereo not drawn), the logP is -1.71.

Compound `C=CC(=O)NCCCN1CCSCC1` gave a logP of 0.54.

`CC(C)(C)C1CCC(O)CC1` (stereo not drawn) displayed a logP of 3.23.

`CNC(=O)NCCn1nc(-c2ccccc2)ccc1=O` returned a logP of 0.39.

In turn, `COc1cccc(C=O)c1` registered a logP of 1.71.

Turning to `CCn1ccc(=O)c(O)c1C`, the logP is -0.31.

`CC1CCCCC1O` (stereo not drawn) yielded a logP of 1.82.

The compound `CC(=O)CC(C)C` displayed a logP of 1.31.

The compound `Cc1cccc2c1ccc1ccccc12` showed a lipophilicity (logP) of 5.08.

With `c1ccc2c(c1)oc1ccccc12`, the solubility was determined as 18.4 µM (≈ 3.1 µg/mL).

In the case of `CCNc1ncc(-c2ccncc2)cc1C#N`, the logP was determined as 2.33.

`COC(=O)c1ccccc1S(N)(=O)=O` showed a lipophilicity (logP) of 0.01.

`CC1=CC(=O)C(C)=C(C)C1=O` registered a logP of 1.82.

Regarding `CNC(=O)CCC(=O)c1cccnc1`, the logP was -0.69.

In the case of `CS(=O)CCCOc1ccc([N+](=O)[O-])cc1` (stereo not drawn), the logP was 0.93.

`Clc1cc2c(Cl)ccc(Cl)c2cc1Cl` registered a logP of 5.81.

The compound `CCNc1nc(NC(C)(C)C)nc(OC)n1` returned a logP of 3.1.

`CCOC(=O)C1=C(C)NC(C)=C(C(=O)OC)C1c1cccc([N+](=O)[O-])c1` (stereo not drawn) gave a lipophilicity (logP) of 2.88.

`S=C1NCCN1`: the logP is -0.66.

`Clc1ccc(Nc2cc3nc4ccccc4n(-c4ccc(Cl)cc4)c-3cc2=NCCCN2CCCC2)cc1` displayed a logP of 7.17.

For `O=[N+]([O-])c1ccc(Oc2c(Cl)cc(Cl)cc2Cl)cc1`, the logP was 4.97.

For `CN(C)P(=O)(N1CCCC1)N1CCCC1`, the logP came out at 1.88.

Consider `CC(=NN=C(N)N)c1cccs1`, for which the logP worked out at 1.05.

`O=C(O)CNC(=O)c1ccc(I)cc1` showed a logP of 1.94.

`COc1ccc2sc(C(=O)Nc3nnn[nH]3)c(OC(C)C)c2c1` yielded a logP of 1.78.

Compound `N=C(N)NN=Cc1ccccc1[N+](=O)[O-]` returned a logP of 0.53.
